# Measured values: ChEMBL document CHEMBL5625209, “Rational design and optimization of acylthioureas as novel potent influenza virus non-nucleoside polymerase inhibitors” (Eur J Med Chem, 2023)
# Activity calls are given as the source filed them. The rule behind the calls is not given here.
# What was measured:
# Influenza A virus [1] = assay: Antiviral activity against Influenza A virus H1N1 (A/Puerto Rico/8/34) infected in MDCK cells assessed as reduction in NP protein level at 10 uM in presence of rGTP by Western blot analysis; assay type: functional, organism-based
# Influenza A virus [2] = assay: Antiviral activity against Influenza A virus H1N1 (A/Puerto Rico/8/34) infected in MDCK cells assessed as reduction in NP protein level at 10 uM in presence of 125 uM rNTP by Western blot analysis; assay type: functional, organism-based
# Influenza A virus [3] = assay: Antiviral activity against Influenza A virus H1N1 (A/Puerto Rico/8/34) infected in MDCK cells assessed as reduction in NP protein level at 10 uM in presence of rATP by Western blot analysis; assay type: functional, organism-based
# Influenza A virus [4] = assay: Antiviral activity against Influenza A virus H1N1 (A/Puerto Rico/8/34) infected in MDCK cells assessed as reduction in NP viral RNA level at 10 uM treated at 1 hr post infection by qRT-PCR analysis; assay type: functional, organism-based
# Influenza A virus [5] = assay: Antiviral activity against Influenza A virus H1N1 (A/Puerto Rico/8/34) infected in MDCK cells assessed as reduction in NP protein level at 10 uM treated at 1 hr post infection by Western blot analysis; assay type: functional, organism-based
# Influenza A virus [6] = assay: Inhibition of Influenza A virus RdRp activity assessed as reduction in Fluc/Rluc ratio at 0.1 to 10 uM; settings: dose 0.1-10 µM
# Influenza A virus [7] = assay: Antiviral activity against Influenza A virus H1N1 (A/Puerto Rico/8/34) infected in MDCK cells assessed as reduction in NP protein level at 1 uM in presence of 1000 uM rNTP by Western blot analysis; assay type: functional, organism-based
# Influenza A virus [8] = assay: Antiviral activity against Influenza A virus H1N1 (A/Puerto Rico/8/34) infected in MDCK cells assessed as reduction in virus-induced cytopathic effect incubated for 48 hrs by CCK8 assay; assay type: functional, organism-based
structure (smiles),measurement,setting,value
NC(=O)c1ncn([C@@H]2O[C@H](CO)[C@@H](O)[C@H]2O)n1,Activity,Influenza A virus [1],inactive
same,Activity,Influenza A virus [2],Active
same,Activity,Influenza A virus [3],inactive
NC12CC3CC(CC(C3)C1)C2,Activity,Influenza A virus [4],Active
same,Activity,Influenza A virus [5],Active
CC(=O)N[C@H]1[C@H]([C@H](O)[C@H](O)CO)OC(C(=O)O)=C[C@@H]1NC(=N)N [ZANAMIVIR],inhibition,Influenza A virus [6],inactive
same,Activity,Influenza A virus [7],Active
same,EC50,Influenza A virus [8],65 nM
